IC50 data for 24 compounds are collected here from patent US20260209214A1, “LSD1 MODULATORS” (RECURSION PHARMACEUTICALS, INC., priority 2022, published 2026).

The structures appear in SMILES notation.

A word on the IC50: it is the concentration needed to halve the response being measured.

The target of the assay is Recombinant human LSD1 (Homo sapiens, UniProt O60341). The assay is described as follows: LSD1 inhibition assay (HTRF LSD1 Histone H3K4 mono-demethylation assay, me1->me0). In kind it is biochemical. Conditions: 20 nM recombinant human LSD1, 95 nM H3K4(me1) biotinylated peptide, 15 min preincubation, 60 min at 25° C., read-out: LSD1 inhibition IC50 (nM range). The gist of the method: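 Recombinant human LSD1 (20 nM) pre-incubated 15 min with 10 semi-log compound doses, then 95 nM biotinylated H3K4me1 peptide for 60 min at 25 °C in pH 8.5 Tris/NaCl buffer with 10 μM FAD, 1 mM DTT. HTRF me0-antibody read after 90 min; IC50 from 4-parameter fit.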
(In general: In TR-FRET formats the signal depends on donor and acceptor labels being close together.)
For the compound `CC1(C)CN(Cc2cccc(-c3ccc(C#N)c(F)c3)c2-c2ccns2)C[C@@H]1N` (single isomer, unassigned) [Example 197], the IC50 was under 10 nM.

With `C[C@]1(N)CCN(Cc2c(F)ccc(-c3ccc(C#N)c(F)c3)c2Cl)C1` [Example 342, 3'-{[(3S)-3-amino-3-methylpyrrolidin-1-yl]methyl}-2'-chloro-3,4'-difluoro-[1,1'-biphenyl]-4-carbonitrile], the IC50 fell in the range of 100 to 1000 nM.

In the case of `N#Cc1ccc(-c2cccc(CN3[C@@H]4CC[C@H]3[C@@H](N)C4)c2C2CC2)cc1F` (racemic) [Example 176, 3'-{[(1S,2S,4R)-2-amino-7-azabicyclo[2.2.1]heptan-7-yl]methyl}-2'-cyclopropyl-3-fluoro-[1,1'-biphenyl]-4-carbonitrile], the half-maximal inhibitory concentration (IC50) fell in the range of 25 to 100 nM.

As to `N#Cc1ccc(-c2cccc(CN3CC(F)(F)[C@@]34CCNC4)c2Cl)cc1F` [Example 337, 2'-chloro-3'-{[(4S)-3,3-difluoro-1,6-diazaspiro[3.4]octan-1-yl]methyl}-3-fluoro-[1,1'-biphenyl]-4-carbonitrile], the concentration for half-maximal inhibition (IC50) was over 1000 nM.

Consider `N#Cc1ccc(-c2cccc(CC3CNCCO3)c2-c2cnco2)cc1F` (stereo not drawn) [Example 47, 3-fluoro-3′-[(morpholin-2-yl)methyl]-2′-(1,3-oxazol-5-yl)-[1,1′-biphenyl]-4-carbonitrile], for which the IC50 lay within 25 to 100 nM.

As for `N#Cc1ccc(-c2cc(CC3CNCCO3)ccc2C2COC2)cc1F` (stereo not drawn) [Example 150, 3-fluoro-5'-[(morpholin-2-yl)methyl]-2'-(oxetan-3-yl)-[1,1'-biphenyl]-4-carbonitrile], the IC50 is over 1000 nM.

As for `N#Cc1ccc(-c2cc(CN3C[C@]4(N)CC[C@H]3C4)cc(N3CCCC3)c2)cc1F` [Example 294, 4-[3-[[(1S,4S)-4-amino-2-azabicyclo[2.2.1]heptan-2-yl]methyl]-5-pyrrolidin-1-yl-phenyl]-2-fluoro-benzonitrile], the half-maximal inhibitory concentration (IC50) lay within 100 to 1000 nM.

With `N#Cc1ccc(-c2cc(CN3CC4(CNCCO4)C3)ccc2N2CCCC2)cc1F` [Example 344, 3-fluoro-5'-({5-oxa-2,8-diazaspiro[3.5]nonan-2-yl}methyl)-2'-(pyrrolidin-1-yl)-[1,1'-biphenyl]-4-carbonitrile], the IC50 was over 1000 nM.

Take `Cc1cc(CN2CCC3(CCN3C)C2)c(Cl)c(-c2ccc(C#N)c(F)c2)c1` (stereo not drawn) [Compound 240]: the concentration for half-maximal inhibition (IC50) lay in the range of 25 to 100 nM.

On to `CC1(c2c(CN3[C@@H]4CC[C@H]3[C@@H](N)C4)cccc2-c2ccc(C#N)c(F)c2)CC1` (racemic) [Example 307, 3'-{[(1S,2S,4R)-2-amino-7-azabicyclo[2.2.1]heptan-7-yl]methyl}-3-fluoro-2'-(1-methylcyclopropyl)-[1,1'-biphenyl]-4-carbonitrile], for which the IC50 is 100 to 1000 nM.

For the compound `N#Cc1ccc(-c2cccc(CN3[C@@H]4CC[C@H]3C[C@H](N)C4)c2C2CC2)cc1F` [Example 321, 3'-{[(1R,3S,5S)-3-amino-8-azabicyclo[3.2.1]octan-8-yl]methyl}-2'-cyclopropyl-3-fluoro-[1,1'-biphenyl]-4-carbonitrile], the half-inhibitory concentration (IC50) was in the range of 10 to 25 nM.

On to `N#Cc1ccc(-c2cc(CC3CNCCO3)ccc2C2CCOCC2)cc1F` (stereo not drawn) [Example 158, 3-fluoro-5′-[(morpholin-2-yl)methyl]-2′-(oxan-4-yl)-[1,1′-biphenyl]-4-carbonitrile], for which the IC50 was over 1000 nM.

In the case of `Cc1cc(CN2C[C@@H]3C[C@H]2CN3C(C)C)c(Cl)c(-c2ccc(C#N)c(F)c2)c1` [Example 297, 2'-chloro-3-fluoro-5'-methyl-3'-{[(1S,4S)-5-(propan-2-yl)-2,5-diazabicyclo[2.2.1]heptan-2-yl]methyl}-[1,1'-biphenyl]-4-carbonitrile], the IC50 is 100 to 1000 nM.

Take `Cc1cc(Oc2ccc(CC3CNCCO3)cc2-c2ccc(C#N)c(F)c2)ccn1` (stereo not drawn) [Example 121, 3-fluoro-2′-[(2-methylpyridin-4-yl)oxy]-5′-[(morpholin-2-yl)methyl]-[1,1′-biphenyl]-4-carbonitrile]: the half-inhibitory concentration (IC50) was 100 to 1000 nM.

Regarding `CC(C)C1(O)CCN(c2ccc(CN3C[C@]4(N)CC[C@H]3C4)cc2-c2ccc(C#N)c(F)c2)CC1` [Example 262, 5'-{[(1S,4S)-4-amino-2-azabicyclo[2.2.1]heptan-2-yl]methyl}-3-fluoro-2'-[4-hydroxy-4-(propan-2-yl)piperidin-1-yl]-[1,1'-biphenyl]-4-carbonitrile], the IC50 lay in the range of 10 to 25 nM.

For `N#Cc1ccc(-c2cc(CN3[C@@H]4CC[C@H]3[C@@H](N)C4)ccc2N2CC3(CC3)C2)cc1F` (racemic) [Example 251, 5'-{[(1S,2S,4R)-2-amino-7-azabicyclo[2.2.1]heptan-7-yl]methyl}-2'-{5-azaspiro[2.3]hexan-5-yl}-3-fluoro-[1,1'-biphenyl]-4-carbonitrile], the IC50 is 25 to 100 nM.

Take `N#Cc1ccc(-c2cc(CN3[C@@H]4CC[C@H]3[C@@H](N)C4)ccc2C2CC2)cc1F` (racemic) [Example 309, 5'-{[(1S,2S,4R)-2-amino-7-azabicyclo[2.2.1]heptan-7-yl]methyl}-2'-cyclopropyl-3-fluoro-[1,1'-biphenyl]-4-carbonitrile]: the half-maximal inhibitory concentration (IC50) is 10 to 25 nM.

In the case of `COc1c(CN2[C@@H]3CC[C@H]2[C@@H](N)C3)cccc1-c1ccc(C#N)c(F)c1` (racemic) [Example 180, 3'-{[(1S,2S,4R)-2-amino-7-azabicyclo[2.2.1]heptan-7-yl]methyl}-3-fluoro-2'-methoxy-[1,1'-biphenyl]-4-carbonitrile], the 50% inhibitory concentration (IC50) is 25 to 100 nM.

With `N#Cc1ccc(-c2cc(F)cc(C[C@@H]3CNCCO3)c2-c2ccns2)cc1F` (single isomer, unassigned) [Example 14], the IC50 is 10 to 25 nM.

As for `N#Cc1ccc(-c2cc(CN3[C@@H]4CC[C@H]3[C@@H](N)C4)ccc2OC(F)F)cc1F` (racemic) [Example 310, 5'-{[(1S,2S,4R)-2-amino-7-azabicyclo[2.2.1]heptan-7-yl]methyl}-2'-(difluoromethoxy)-3-fluoro-[1,1'-biphenyl]-4-carbonitrile], the IC50 was in the range of 10 to 25 nM.

In the case of `Cc1cc(CNCC2CCN(C)C2)c(Cl)c(-c2ccc(C#N)c(F)c2)c1` (stereo not drawn) [Example 226, 2'-chloro-3-fluoro-5'-methyl-3'-({[(1-methylpyrrolidin-3-yl)methyl]amino}methyl)-[1,1'-biphenyl]-4-carbonitrile], the 50% inhibitory concentration (IC50) was in the range of 100 to 1000 nM.

For `N#Cc1ccc(-c2cccc(CN3CCC4(CC3)CNC4)c2Cl)cc1F` [Example 339, 2'-chloro-3'-({2,7-diazaspiro[3.5]nonan-7-yl}methyl)-3-fluoro-[1,1'-biphenyl]-4-carbonitrile], the IC50 lay in the range of 25 to 100 nM.

With `N#Cc1ccc(-c2cccc(CN3CC4CNC(C4)C3)c2Cl)cc1F` (stereo not drawn) [Example 284, 2'-chloro-3'-({3,6-diazabicyclo[3.2.1]octan-3-yl}methyl)-3-fluoro-[1,1'-biphenyl]-4-carbonitrile], the half-inhibitory concentration (IC50) is 100 to 1000 nM.

Regarding `N#Cc1ccc(-c2cccc(CN3[C@@H]4CC[C@H]3[C@@H](N)C4)c2C2=CCOCC2)cc1F` (racemic) [Example 249, 3'-{[(1S,2S,4R)-2-amino-7-azabicyclo[2.2.1]heptan-7-yl]methyl}-2'-(3,6-dihydro-2H-pyran-4-yl)-3-fluoro-[1,1'-biphenyl]-4-carbonitrile], the IC50 lay within 25 to 100 nM.
